Series [1] concerns MCF-7 breast carcinoma cells. As to the kind of experiment: Suppression of thymidine incorporation, dose-response (FIG. 13). The format is cell-based, human. The conditions noted are these: MCF-7 with 17-β-estradiol, 72 h; oleanolic acid statement at concentrations of 1 μM or less. On the procedure:
(§1) Inhibitors of cell proliferation are known to be useful chemopreventive and chemotherapeutic agents. CDDO was tested against a wide variety of cells derived from highly aggressive leukemias and carcinomas, as well as from non-neoplastic tissues. NRP-152 cells were grown as described in Danielpour et al., 1994. MCF-7 cells were grown in phenol red-free RPMI 1640/10% charcoal-stripped FBS with added 17-β-estradiol (10 μM). Triterpenoids were added at the time of plating, and 72 h later ^3H-thymidine (1 μCi/well) was added for the final 2 h of incubation. Incorporation of thymidine was measured after cells were precipitated with TCA (10%), washed, and solubilized. The symbols used in FIG. 13 are CDDO, ▪; TP-82, ◯; and oleanolic acid; ●.
A general note: Uptake of a labelled nucleoside into DNA is a usual measure of proliferation.

Series [2] has as its system NRP-152 non-malignant prostate epithelium cells. The description is as above. The format is cell-based, rat. As to conditions: NRP-152, 72 h; oleanolic acid statement at concentrations of 1 μM or less. The method, then:
as §1

In series [3] the test system is IFN-γ-induced NO production in mouse macrophages. As to the kind of experiment: Inhibition of IFN-γ induced NO production in mouse macrophages. The format is cell-based. As to conditions: Mus musculus, Macrophage; 4 ng/mL IFN-γ, 48 hours, nitrite by Griess reaction; average of two separate experiments; read-out: IC50 for Inhibition of IFN-γ-Induced NO Production in Mouse Macrophages. On the procedure: The inhibitory activities of these compounds and dexamethasone on IFN-γ induced NO production in mouse macrophages is shown below in Table 1. The following procedure for the assay ws used. Macrophages were harvested from female mice injected intraperitoneally four days previously with 4% thioglycollate. These cells were seeded in 96-well tissue culture plates and incubated with 4 ng/mL IFN-γ in the presence or absence of inhibitory test compounds. After 48 hours NO production (measured as nitrite by the Griess reaction) was determined. Full details of the assay are given in Ding et al., 1990; Bogdan et al., 1992.
(In general: Nitrite, measured by Griess reagent, commonly stands in for NO production.)

Series [4] relates to LCDB acute myelogenous leukemia cell line. Description: Monocytic differentiation, α-naphthyl acetate esterase staining. Type of series: cell-based, human. The conditions noted are these: TGF-β1 2.5 ng/ml, 48 h. The method, then: CDDO induces monocytic differentiation in the poorly differentiated LCDB acute myelogenous leukemia cell line, derived from a chemotherapy-resistant patient at the NCI Pediatric Oncology Branch. FIG. 11 illustrates LCDB cells seeded in RPMI 1640/2% FBS, either alone (11A), with 2.5 ng/ml TGF-β1 (11B), with 10^−8 M CDDO (11C), or with both TGF-β1 and CDDO (11D). After 48 h, cytospin slide preparations were made and stained for α-naphthyl acetate esterase activity (kit from Sigma). PC12 cells were cultured for 5 days in gridded dishes in DMEM/10% FBS and 5% horse serum (Smith et al., 1997), either alone (11E), with 100 ng/ml 7S NGF (11F), with 10^−6 M CDDO (11G), or with both NGF and CDDO (11H). […] Methods for quantitative image analysis of size of cells and neurites have been described (De 1a Torre et al., 1997). Control cells in FIG. 11E are approximately 10 μm in diameter. 3T3-L1 cells were grown to confluency in DMEM/5% calf serum, and then treated once with CDDO in DMEM/10% FBS (FIG. 12A) or with CDDO and/or LG100268 in DMEM/10% FBS (FIG. 12B). Every two days thereafter, medium was changed to DMEM/10% FBS, without added CDD0 or LG100268. Cells were harvested on day 8 (FIG. 12A) or day 6 (FIG. 12B), and GPDH was measured in lysates, using a standard assay for consumption of NADH at 340 nm (Wise and Green, 1979).

pIC50: −log10 of the molar value.

“3,11-dioxoolean-1,9-dien-28oic acid [TP-82]”: the suppressing thymidine incorporation entry in series [1] and in series [2] was “markedly less active” in each case. As to `C[C@@H]1C[C@H]2[C@@H]3CCC4=CC(=O)C=C[C@]4(C)[C@@]3(F)[C@@H](O)C[C@]2(C)[C@@]1(O)C(=O)CO` [dexamethasone, reference compound], in series [3], the pIC50 (as a rule, the negative decadic logarithm of the IC50, by convention in mol/L) is 9.00. Turning to TGF-01: transforming growth factor-β1, the “induction of α-naphthyl esterase activity (monocytic differentiation)” value in series [4] is recorded as “induced x-naphthyl esterase activity”. Regarding `CC1(C)CC[C@]2(C(=O)O)CC[C@]3(C)C(=CC[C@@H]4[C@@]5(C)CC[C@H](O)C(C)(C)[C@@H]5CC[C@]43C)[C@@H]2C1` [oleanolic acid, reference compound], the suppressing thymidine incorporation entry in series [1] and in series [2] was “virtually without activity” each time.

Values taken from patent US20080234368A9, “Therapeutic compositions and methods of use” (Trustees of Dartmouth College, priority 1998, published 2008).
